Measured values as given in article PMC8116641 (Archives of Virology, 2021).

Tested on: influenza A virus A/Aichi/2/68 (H3N2) (Aichi (H3N2))
Assay: microbe, parasite or virus in culture
Format: cell-based
Settings: Influenza A virus, H3N2, MDCK, read-out: IC50 (50% inhibitory concentration)

SMILES: CC1(C)[C@H]2CC[C@]1(C)[C@H](OC(=O)C[N+](C)(C)C)C2.[I-] [10a, N,N,N-Trimethyl-2-oxo-2-((1S,2R,4S)-1,7,7-trimethylbicyclo[2.2.1]heptan-2-yloxy)ethanaminium iodide]
- IC50: 16.8 µM
